Reference: PubChem BioAssay AID2060493 (Molecular Pharmacology Branch, DTP, NCI, 2025)

Tested on: 616215-338-R-J1-PDC tumor spheroids, viability
Test: Anticancer human tumor 616215-338-R-J1-PDC patient-derived colon adenocarcinoma cell line growth inhibition [GQUAD]
Details: spheroids with HUVEC and MSC; for IC50: curve of first compound; for viability, T/C: stronger effect = lower value
Method in brief: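 Multi-cell-type spheroids of tumor cells with HUVEC and mesenchymal stem cells, treated with drug combinations. Concentrations descend in half-log steps from near clinical Cmax, or from 10 microM where Cmax is unknown; viability read-out.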

[1] = second compound 0.0316 µM, first compound 0.0316 µM
[2] = second compound 0.0316 µM, first compound 0.1 µM
[3] = second compound 0.0316 µM, first compound 0.316 µM
[4] = second compound 0.0316 µM, first compound 1 µM
[5] = second compound 0.0316 µM, first compound 3.16 µM
[6] = second compound 0.0316 µM, first compound 10 µM
[7] = second compound 0.1 µM, first compound 0.0316 µM
[8] = second compound 0.1 µM, first compound 0.1 µM
[9] = second compound 0.1 µM, first compound 0.316 µM
[10] = second compound 0.1 µM, first compound 1 µM
[11] = second compound 0.1 µM, first compound 3.16 µM
[12] = second compound 0.1 µM, first compound 10 µM
[13] = second compound 0.316 µM, first compound 0.0316 µM
[14] = second compound 0.316 µM, first compound 0.1 µM
[15] = second compound 0.316 µM, first compound 0.316 µM
[16] = second compound 0.316 µM, first compound 1 µM
[17] = second compound 0.316 µM, first compound 3.16 µM
[18] = second compound 0.316 µM, first compound 10 µM
[19] = second compound 1 µM, first compound 0.0316 µM
[20] = second compound 1 µM, first compound 0.1 µM
[21] = second compound 1 µM, first compound 0.316 µM
[22] = second compound 1 µM, first compound 1 µM
[23] = second compound 1 µM, first compound 3.16 µM
[24] = second compound 1 µM, first compound 10 µM
[25] = second compound 3.16 µM, first compound 0.0316 µM
[26] = second compound 3.16 µM, first compound 0.1 µM
[27] = second compound 3.16 µM, first compound 0.316 µM
[28] = second compound 3.16 µM, first compound 1 µM
[29] = second compound 3.16 µM, first compound 3.16 µM
[30] = second compound 3.16 µM, first compound 10 µM
[31] = second compound 10 µM, first compound 0.0316 µM
[32] = second compound 10 µM, first compound 0.1 µM
[33] = second compound 10 µM, first compound 0.316 µM
[34] = second compound 10 µM, first compound 1 µM
[35] = second compound 10 µM, first compound 3.16 µM
[36] = second compound 10 µM, first compound 10 µM
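Note: spheroids exposed to agents for 7 days before readout.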
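Throughout, for viability, T/C: percent viability relative to DMSO vehicle control wells taken as 100%.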

Compound: O=c1[nH]cc(F)c(=O)[nH]1 + Cc1cnc(CNC(=O)c2c(=O)c3ccc(N4CCCN(C)CC4)nc3n3c2sc2ccccc23)cn1
- IC50 (second compound 0.0316 µM): 786 nM
- IC50 (second compound 0.1 µM): 559 nM
- IC50 (second compound 0.316 µM): < 31.6 nM
- IC50 (second compound 1 µM): < 31.6 nM
- IC50 (second compound 3.16 µM): < 31.6 nM
- IC50 (second compound 10 µM): < 31.6 nM
- viability, T/C [1]: 98.8%
- viability, T/C [2]: 98.7%
- viability, T/C [3]: 62.9%
- viability, T/C [4]: 51.5%
- viability, T/C [5]: 40.4%
- viability, T/C [6]: 35.8%
- viability, T/C [7]: 66.8%
- viability, T/C [8]: 62.4%
- viability, T/C [9]: 54.1%
- viability, T/C [10]: 40.4%
- viability, T/C [11]: 46.5%
- viability, T/C [12]: 31.5%
- viability, T/C [13]: 40.9%
- viability, T/C [14]: 48.7%
- viability, T/C [15]: 54.6%
- viability, T/C [16]: 36.1%
- viability, T/C [17]: 43%
- viability, T/C [18]: 39.2%
- viability, T/C [19]: 32.4%
- viability, T/C [20]: 39.2%
- viability, T/C [21]: 42.6%
- viability, T/C [22]: 33.4%
- viability, T/C [23]: 36.6%
- viability, T/C [24]: 22.4%
- viability, T/C [25]: 31.7%
- viability, T/C [26]: 25.2%
- viability, T/C [27]: 22.1%
- viability, T/C [28]: 30.3%
- viability, T/C [29]: 34.1%
- viability, T/C [30]: 28.7%
- viability, T/C [31]: 25.7%
- viability, T/C [32]: 28.7%
- viability, T/C [33]: 25.6%
- viability, T/C [34]: 30.3%
- viability, T/C [35]: 25.6%
- viability, T/C [36]: 30.4%

Compound: C=CCn1c(=O)c2cnc(Nc3ccc(N4CCN(C)CC4)cc3)nc2n1-c1cccc(C(C)(C)O)n1 + CN(C)c1ccc(Nc2c3ccc(NC(=O)CCN4CCCC4)cc3nc3cc(NC(=O)CCN4CCCC4)ccc23)cc1
- IC50 (second compound 0.0316 µM): 344 nM
- IC50 (second compound 0.1 µM): 300 nM
- IC50 (second compound 0.316 µM): 347 nM
- IC50 (second compound 1 µM): 281 nM
- IC50 (second compound 3.16 µM): 308 nM
- IC50 (second compound 10 µM): 335 nM
- viability, T/C [1]: 108%
- viability, T/C [2]: 100%
- viability, T/C [3]: 50.6%
- viability, T/C [4]: 23%
- viability, T/C [5]: 12.6%
- viability, T/C [6]: 11.5%
- viability, T/C [7]: 107%
- viability, T/C [8]: 109%
- viability, T/C [9]: 46.9%
- viability, T/C [10]: 23.5%
- viability, T/C [11]: 13.4%
- viability, T/C [12]: 12%
- viability, T/C [13]: 105%
- viability, T/C [14]: 107%
- viability, T/C [15]: 52.2%
- viability, T/C [16]: 23.3%
- viability, T/C [17]: 13.1%
- viability, T/C [18]: 14.7%
- viability, T/C [19]: 98.2%
- viability, T/C [20]: 99.5%
- viability, T/C [21]: 44.1%
- viability, T/C [22]: 24.4%
- viability, T/C [23]: 13.7%
- viability, T/C [24]: 14.3%
- viability, T/C [25]: 100%
- viability, T/C [26]: 96.9%
- viability, T/C [27]: 46.4%
- viability, T/C [28]: 26%
- viability, T/C [29]: 14.5%
- viability, T/C [30]: 10.6%
- viability, T/C [31]: 87.9%
- viability, T/C [32]: 90.3%
- viability, T/C [33]: 49%
- viability, T/C [34]: 19.9%
- viability, T/C [35]: 11.9%
- viability, T/C [36]: 3.42%

Compound: CC1COCCN1c1cc(-c2ccnn2C)c2ccnc(-c3ccn[nH]3)c2n1 (stereo unspecified) + CN(C)c1ccc(Nc2c3ccc(NC(=O)CCN4CCCC4)cc3nc3cc(NC(=O)CCN4CCCC4)ccc23)cc1
- IC50 (second compound 0.0316 µM): 157 nM
- IC50 (second compound 0.1 µM): 147 nM
- IC50 (second compound 0.316 µM): 164 nM
- IC50 (second compound 1 µM): 142 nM
- IC50 (second compound 3.16 µM): 129 nM
- IC50 (second compound 10 µM): 129 nM
- viability, T/C [1]: 99.1%
- viability, T/C [2]: 61.8%
- viability, T/C [3]: 31.1%
- viability, T/C [4]: 25.6%
- viability, T/C [5]: 18.4%
- viability, T/C [6]: 21.6%
- viability, T/C [7]: 94.4%
- viability, T/C [8]: 58.5%
- viability, T/C [9]: 33.5%
- viability, T/C [10]: 21.2%
- viability, T/C [11]: 21.6%
- viability, T/C [12]: 22.4%
- viability, T/C [13]: 93%
- viability, T/C [14]: 65.4%
- viability, T/C [15]: 29.1%
- viability, T/C [16]: 23.1%
- viability, T/C [17]: 20.7%
- viability, T/C [18]: 18.6%
- viability, T/C [19]: 90.1%
- viability, T/C [20]: 55.5%
- viability, T/C [21]: 38.1%
- viability, T/C [22]: 22.6%
- viability, T/C [23]: 18.8%
- viability, T/C [24]: 25.7%
- viability, T/C [25]: 91.7%
- viability, T/C [26]: 55.6%
- viability, T/C [27]: 30.2%
- viability, T/C [28]: 23.8%
- viability, T/C [29]: 22.2%
- viability, T/C [30]: 16.7%
- viability, T/C [31]: 88.4%
- viability, T/C [32]: 53.8%
- viability, T/C [33]: 35.8%
- viability, T/C [34]: 24.2%
- viability, T/C [35]: 19.7%
- viability, T/C [36]: 18.5%
